# Assays:
# Format in all cases: cell-based, human
# [1] = tested on: Ca^2+ entry pathway in Jurkat cells; test: thapsigargin-stimulated Ca2+ entry measured with Ca2+-sensitive dyes (indo-1, fluo-3)
# Procedure: Lymphocytes were suspended in culture medium at 37° C. for 1 h in the presence of 1 μM of the Ca^2+ indicator dye indo-1 /AM. Cells were washed twice in buffer A (140 mM NaCl, 3 mM KCl, 1 mM CaCl2, 1 mM MgCl2, 0.1% D-glucose, 1% FBS, 10 mM HEPES, pH 7.4) and were suspended at a final concentration of 1×10^6 cells/ml in buffer A. The excitation wavelength was 340 nm and emission was monitored at 398 nm in an SLM 8000 spectrofluorometer (SLM/Aminco, Urbana, Ill.), with the temperature maintained at 37° C. Data are plotted as relative fluorescence intensity at 398 nm as a measure of [Ca^2+]i. For FIG. 7, indo-1 emission was monitored at 398 nm and 480 nm and [Ca^2+]i was determined as described previously (Gray et al, J. Immunol (1987) 138:63; Haverstick et al, Mol. Biol. Cell (1993) 4:173).
# Jurkat cells were loaded with indo-1/AM as described above. The excitation wavelength was 340 nm and emission was measured at 441 nm. The fluorescence of indo-1 at 441 nm is insensitive to changes in [Ca^2+]i (Sage et al, Biochem. J. (1989) 258:923) and is plotted as relative fluorescence intensity.
# Because amiloride interferes with the fluorescence of indo-1 (Wacholtz et al, J. Immunol. (1992) 149:1912), fluo-3 was used to monitor [Ca^2+]i in the presence of amiloride. Jurkat cells were suspended in culture medium at 37° C. for 1 h in the presence of 1 μM fluo-3/AM and 1 mM probenecid to decrease dye leakage (DiVirgilio et al, Methods Cell Biol. (1989) 31:453). After two washes in buffer A, cells were suspended at a concentration of 1×10^6 cells/ml in buffer A with 1 mM probenecid and were maintained in a cuvette at 37° C. The excitation wavelength was 506 nm and the emission was monitored at 526 nm. Data are presented sa relative fluorescence intensity at 526 nm.
# [2] = tested on: Jurkat T cells; test: Jurkat cell proliferation, tetrazolium dye; conditions: 48 hours
# Procedure: The effect of various drugs on the proliferation of Jurkat T cells, MDA-468 human breast cancer cells and PC3 human prostate cancer cells was determined by incubating the cells with the indicated concentrations of drug for 48 hours. The number of viable cells remaining at the end of the incubation period was evaluated using the procedure outlined in Example 4.
# Cells are plated in triplicate in a 96-well flat-bottomed plate (Jurkat: 5e4 cells/well in RPMI-1640 plus 5% fbs; MDA468: 2.5e4 per well in DMEM plus 5% fbs and 11 μg/ml insulin) in the absence (control) or presence of drug at 3, 10, 30, and 100 μM. An additional control of 100 μM drug in RPMI-1640 plus 5% fbs or DMEM plus 5% fbs and 11 μg/Ml insulin with no cells is included with each run to control for possible drug interactions with the dye. The plate is then placed in a 5% CO2 37° C. incubator for 44 to 48 hours. 20 μl of dye solution containing a tetrazolium dye (3-(4,5-dimethylthiazol-2-yl)-5-(3-carboxymethoxyphenyl)-2-(4-sulfophenyl)-2H-tetrazolium, Owen's reagent) plus coupling reagent (phenazine methosulfate) is added to each well, the plate is returned to the incubator, and the absorbance at 490 nm is read using an ELISA plate reader 3 to 4 h (Jurkat cells) or 2 to 3 h (MDA-468 cells) later. All data are presented as percent of control (no drug addition). With this protocol, it is possible to determine the effect of 5 drugs at 4 concentrations in a single 96-well plate as outlined below: […]
# [3] = tested on: VG Ca^2+ current in Jurkat cells; test: perforated patch clamp, voltage gated (VG) Ca2+ current; conditions: Homo sapiens, 10 μM NDGA
# Procedure: All recordings were performed using the perforated patch method (Horn et al, J. Gen. Physiol. (1988) 92:145) of the gigaseal patch clamp technique (Hammil et al, Pflugers Arch (1981) 391:85) with microelectrodes of 5-10 megohm series resistance. In all solutions for voltage clamp, K^+ was replaced with Cs^+ to block outward K^+ currents (Fox et al, J. Physiol. (Lond.) (1987) 392:149). The bath solution contained (in mM): NaCl, 155; CsCl, 4.5; CaCl2, 2; MgCl2, 1; D-glucose, 5; HEPES, 10 (pH 7.4 with NaOH). The pipette solution contained (in mM): CsCl, 55; Cesium methanesulfonate, 70; CaCl2, 1; MgCl2, 7; HEPES, 10 (pH 7.3 with NaOH). Nystatin was made as a stock solution of 6 mg/100 μl DMSO, and 2 μl of the stock was added to 1 ml of the pipette solution for use. Both pipette and bath solutions were 290-300 mOsm. Experiments were performed on cells at room temperature using the Axopatch-1D patch clamp (Axon Instruments, Foster City, Calif.) after correction of junction potentials and leak subtraction. Records were low-pass filtered at 500 Hz, and the data were collected, stored and analyzed using the pClamp software program (Axon Instruments). For the non-voltage gated current traces, data is presented either as the tracing from a chart recorder or from the digital data in which the current was measured at 5 second intervals and plotted as individual points.
# [4] = tested on: [Ca^2+]i in MDA-468 cells; test: EGF receptor-stimulated Ca2+ influx in MDA-468 cells; conditions: effect the same post- and pre- EGF receptor stimulation
# Procedure: MDA468 cells are incubated with either indo-1 or the combination of fura-red/fluo-3 for 1 hour while still adherent in the maintenance flask in DMEM plus 5% fbs and 1 μg/ml insulin. Cells are removed by gentle scraping and washed three times in buffer A containing 1% charcoal stripped fbs (Nelson et al, Br. J. Cancer (1991) 63:933). The cells are then suspended to a final concentration of 1e6/ml and used as above in the SLM. For the human breast cancer cells, Ca^2+ entry is stimulated by the addition of 25 ng/ml EGF, rather than the antibody used above.
smiles,measurement,setting,value
"CC(Cc1ccc(O)c(O)c1)C(C)Cc1ccc(O)c(O)c1 (centres unmarked) [NDGA, 4,4′-(2,3-dimethyl-1,4-butanediyl)bis[1,2-benzenediol]]",effect on thapsigargin-stimulated Ca^2+ entry,"[1]; 300 nM thapsigargin, amiloride 100 μM (fluo-3), Ni^2+ 1 mM, NDGA 10 μM (indo-1)",inhibited Ca^2+ entry
same,IC50,"[1]; Homo sapiens, indo-1, n=10, read-out: IC50 for blockade of thapsigargin-stimulated Ca^2+ entry",5 µM
same,T cell PROLIF,[2],↓
same,inhibition at 10 µM,[3],~70%
same,MDA [CA^2+]i,[4],↓

# Reference: patent US6413967B1, “Inhibition of novel calcium entry pathway in electrically non-excitable cells acting as an anti-proliferative therapy” (The University of Virginia Patents Foundation, priority 1995, dated 2002)
